Measured values from ChEMBL document CHEMBL4507263, “Data for DCP probe BAY-474” (2021).

Columns and labels:
[1] = target: voltage-gated sodium channel, site 2 (Rattus norvegicus, UniProt F1LQQ7+O08562+O88420+O88457+P04774+P04775+P08104+P15389+P15390+Q62968); assay: Inhibition of Sodium Channel, Site 2 at 10 µM in the Eurofins-Panlabs radioligand binding assay (Eurofins_assay_279510); assay type: protein assay; design: ligand concentration 5 nM, non-specific ligand with concentration 100 µM Veratridine, incubation time 60 min, incubation temperature 37 °C; conditions: male, Wistar, rat whole brain (except cerebellum) membranes, probe [3H] Batrachotoxinin, compound concentration 10 uM
[2] = tested on: Epidermal growth factor receptor (Homo sapiens), P00533 [L861Q]; conditions: Compound concentration 1000.0 nM
[3] = target: Mitogen-activated protein kinase kinase kinase 11 (Homo sapiens) (UniProt Q16584); conditions: Compound concentration 1000.0 nM
[4] = target: Activin receptor type-1-like (Homo sapiens) (UniProt P37023); conditions: Compound concentration 1000.0 nM
[5] = target: Mitogen-activated protein kinase 1 (Homo sapiens) (UniProt P28482); conditions: Compound concentration 1000.0 nM
[6] = target: Cyclin-dependent kinase-like 5 (Homo sapiens) (UniProt O76039); conditions: Compound concentration 1000.0 nM
[7] = target: Bone morphogenetic protein receptor type-2 (Homo sapiens) (UniProt Q13873); conditions: Compound concentration 1000.0 nM
Sequence of Bone morphogenetic protein receptor type-2 (Homo sapiens) (Q13873 whole entry): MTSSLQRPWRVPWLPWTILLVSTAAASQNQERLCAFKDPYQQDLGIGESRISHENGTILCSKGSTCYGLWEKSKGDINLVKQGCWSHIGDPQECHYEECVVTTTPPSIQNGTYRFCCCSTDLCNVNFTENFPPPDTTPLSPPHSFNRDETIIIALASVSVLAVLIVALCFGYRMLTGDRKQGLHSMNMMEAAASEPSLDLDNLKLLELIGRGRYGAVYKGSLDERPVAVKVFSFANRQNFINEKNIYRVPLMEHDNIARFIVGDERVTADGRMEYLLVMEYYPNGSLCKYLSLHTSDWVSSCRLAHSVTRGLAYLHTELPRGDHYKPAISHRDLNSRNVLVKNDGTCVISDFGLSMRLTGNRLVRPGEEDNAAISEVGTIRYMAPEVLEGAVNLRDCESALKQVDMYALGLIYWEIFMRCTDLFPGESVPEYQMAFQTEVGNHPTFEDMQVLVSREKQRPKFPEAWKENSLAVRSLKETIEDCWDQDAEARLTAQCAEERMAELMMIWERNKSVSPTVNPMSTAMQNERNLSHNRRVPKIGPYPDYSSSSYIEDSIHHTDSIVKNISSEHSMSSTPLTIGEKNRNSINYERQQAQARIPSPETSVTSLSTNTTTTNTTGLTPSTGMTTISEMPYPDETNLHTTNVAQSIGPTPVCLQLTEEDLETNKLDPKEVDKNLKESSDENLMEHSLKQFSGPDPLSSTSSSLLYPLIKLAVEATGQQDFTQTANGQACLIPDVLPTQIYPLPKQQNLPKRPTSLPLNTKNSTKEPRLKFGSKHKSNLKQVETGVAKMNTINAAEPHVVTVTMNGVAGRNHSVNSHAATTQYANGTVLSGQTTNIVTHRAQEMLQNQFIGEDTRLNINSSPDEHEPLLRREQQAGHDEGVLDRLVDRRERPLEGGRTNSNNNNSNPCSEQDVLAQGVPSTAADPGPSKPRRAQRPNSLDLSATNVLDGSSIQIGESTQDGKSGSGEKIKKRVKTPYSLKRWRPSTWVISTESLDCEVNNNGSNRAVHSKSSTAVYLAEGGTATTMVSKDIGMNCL

Sequence of Mitogen-activated protein kinase 1 (Homo sapiens) (P28482 whole entry): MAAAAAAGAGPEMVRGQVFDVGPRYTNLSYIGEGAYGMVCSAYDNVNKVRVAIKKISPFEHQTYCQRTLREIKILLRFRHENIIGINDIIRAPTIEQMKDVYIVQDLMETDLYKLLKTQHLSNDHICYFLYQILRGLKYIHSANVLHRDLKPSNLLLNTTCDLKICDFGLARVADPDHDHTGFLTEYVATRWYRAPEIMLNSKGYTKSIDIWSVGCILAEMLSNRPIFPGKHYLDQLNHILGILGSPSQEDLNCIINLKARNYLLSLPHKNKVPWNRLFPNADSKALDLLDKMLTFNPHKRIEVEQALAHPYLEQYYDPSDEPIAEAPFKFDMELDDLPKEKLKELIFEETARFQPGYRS
Sequence of Activin receptor type-1-like (Homo sapiens) (P37023 whole entry): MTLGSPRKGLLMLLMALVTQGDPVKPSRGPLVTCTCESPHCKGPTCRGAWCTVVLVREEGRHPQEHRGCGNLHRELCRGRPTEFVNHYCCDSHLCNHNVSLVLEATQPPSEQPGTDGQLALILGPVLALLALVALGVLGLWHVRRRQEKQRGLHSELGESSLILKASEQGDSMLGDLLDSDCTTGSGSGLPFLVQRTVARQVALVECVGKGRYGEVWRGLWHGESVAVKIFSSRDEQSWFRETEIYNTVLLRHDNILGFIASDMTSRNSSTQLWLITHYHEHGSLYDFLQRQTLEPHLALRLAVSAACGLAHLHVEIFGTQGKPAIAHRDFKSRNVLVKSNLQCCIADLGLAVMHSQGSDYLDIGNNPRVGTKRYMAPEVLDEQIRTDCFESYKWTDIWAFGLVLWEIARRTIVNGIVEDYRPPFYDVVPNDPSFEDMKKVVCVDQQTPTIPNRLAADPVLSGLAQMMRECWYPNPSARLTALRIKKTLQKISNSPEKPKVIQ
Sequence of Mitogen-activated protein kinase kinase kinase 11 (Homo sapiens) (Q16584 whole entry, looked up): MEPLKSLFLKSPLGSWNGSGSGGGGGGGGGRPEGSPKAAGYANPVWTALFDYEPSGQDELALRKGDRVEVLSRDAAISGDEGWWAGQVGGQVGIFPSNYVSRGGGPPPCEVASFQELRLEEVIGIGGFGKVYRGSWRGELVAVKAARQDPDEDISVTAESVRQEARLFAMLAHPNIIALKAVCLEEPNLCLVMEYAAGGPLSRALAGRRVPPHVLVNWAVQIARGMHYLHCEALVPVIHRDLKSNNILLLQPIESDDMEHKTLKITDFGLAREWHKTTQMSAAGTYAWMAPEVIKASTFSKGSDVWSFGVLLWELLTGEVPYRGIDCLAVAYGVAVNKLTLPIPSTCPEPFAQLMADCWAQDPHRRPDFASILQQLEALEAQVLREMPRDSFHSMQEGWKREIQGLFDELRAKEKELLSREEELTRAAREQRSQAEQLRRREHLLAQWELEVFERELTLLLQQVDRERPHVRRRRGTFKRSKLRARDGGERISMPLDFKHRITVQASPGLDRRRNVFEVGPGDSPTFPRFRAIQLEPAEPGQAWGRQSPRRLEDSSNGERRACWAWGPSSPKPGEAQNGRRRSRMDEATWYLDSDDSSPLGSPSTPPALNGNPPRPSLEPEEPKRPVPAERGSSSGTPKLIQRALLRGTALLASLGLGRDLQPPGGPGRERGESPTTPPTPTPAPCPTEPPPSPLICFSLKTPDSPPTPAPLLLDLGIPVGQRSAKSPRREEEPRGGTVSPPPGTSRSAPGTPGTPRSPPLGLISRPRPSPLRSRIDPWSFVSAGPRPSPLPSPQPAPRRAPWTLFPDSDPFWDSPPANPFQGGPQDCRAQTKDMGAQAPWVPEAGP
Sequence of Cyclin-dependent kinase-like 5 (Homo sapiens) (O76039 whole entry): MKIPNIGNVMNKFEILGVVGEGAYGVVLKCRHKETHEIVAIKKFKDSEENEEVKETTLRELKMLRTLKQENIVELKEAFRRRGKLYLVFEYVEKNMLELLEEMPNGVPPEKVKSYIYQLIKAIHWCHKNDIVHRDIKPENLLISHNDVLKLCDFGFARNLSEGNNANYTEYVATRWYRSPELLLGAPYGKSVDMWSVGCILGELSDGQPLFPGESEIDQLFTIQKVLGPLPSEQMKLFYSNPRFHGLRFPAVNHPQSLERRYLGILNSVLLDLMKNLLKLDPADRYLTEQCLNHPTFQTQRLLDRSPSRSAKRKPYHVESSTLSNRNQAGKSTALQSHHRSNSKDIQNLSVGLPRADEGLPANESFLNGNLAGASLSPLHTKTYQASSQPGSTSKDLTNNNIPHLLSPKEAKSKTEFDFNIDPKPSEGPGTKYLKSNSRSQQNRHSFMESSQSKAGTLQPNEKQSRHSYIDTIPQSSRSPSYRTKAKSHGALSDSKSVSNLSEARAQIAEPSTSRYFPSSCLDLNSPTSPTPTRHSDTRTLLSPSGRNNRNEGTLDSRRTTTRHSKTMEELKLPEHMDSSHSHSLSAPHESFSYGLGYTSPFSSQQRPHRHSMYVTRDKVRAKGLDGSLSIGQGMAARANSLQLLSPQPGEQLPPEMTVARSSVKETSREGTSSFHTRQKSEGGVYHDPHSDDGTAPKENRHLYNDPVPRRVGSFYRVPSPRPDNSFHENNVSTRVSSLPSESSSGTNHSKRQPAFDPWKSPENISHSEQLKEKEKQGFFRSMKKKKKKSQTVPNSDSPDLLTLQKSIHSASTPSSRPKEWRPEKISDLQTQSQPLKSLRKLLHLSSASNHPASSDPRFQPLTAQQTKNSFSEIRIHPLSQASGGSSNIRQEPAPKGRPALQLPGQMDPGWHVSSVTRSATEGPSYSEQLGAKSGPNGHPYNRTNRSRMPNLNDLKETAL

In the case of `CC1=C(C#N)C(c2ccc3[nH]nc(C)c3c2)C(C#N)=C(C)N1` [BAY-474], the inhibition at 60 min, 10 µM [1] is reported as -1% (not active).
`CC1=C(C#N)[C@@H](c2ccc3[nH]nc(C)c3c2)C(C#N)=C(c2ccc(Cl)cc2)N1` [BAY-827] was tested, and the residual activity [2] was 100%, the residual activity [3] was 100% and the residual activity [4] was 79%. It also gave a residual activity [5] of 100%, a residual activity [6] of 88.5% and a residual activity [7] of 100%.
